Measurements as given in the supplement of paper PMC11061612.

Experiments:
Assay in all cases: Bliss excess, mean over the matrix (fraction); higher = more synergy
[1] = tested on: SU8686 (Pancreatic Carcinoma)
Procedure, shortened: (§1)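 Cell lines in DMEM/F12 or RPMI with 10% FBS were plated in 1536-well plates, held 24 hours at 37°C, 5% CO2, then given two-drug dose matrices for 72 hours (DMSO typically 0.2%). Viability was read by CellTiter-Glo 2.0 luminescence and scaled as inhibition from 0 (vehicle wells) to 1 (blank wells). Combination Emax is the second-highest inhibition in the matrix; Bliss excess is observed combination effect minus expected EA + EB − EA·EB, EA and EB being single-agent effects.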

[2] = tested on: SW13 (Other Solid Carcinomas)
Procedure, shortened: as §1

[3] = tested on: HGC-27 (Gastric Carcinoma)
Procedure, shortened: as §1

D-263MG (Glioblastoma) = tested on: D-263MG (Glioblastoma)
Procedure, shortened: as §1

[4] = tested on: NCI-H727 (Other Solid Carcinomas)
Procedure, shortened: as §1

[5] = tested on: NCI-H1915 (Non-Small Cell Lung Carcinoma)
Procedure, shortened: as §1

TGW (Neuroblastoma) = tested on: TGW (Neuroblastoma)
Procedure, shortened: as §1

[6] = tested on: RF-48 (B-Cell Non-Hodgkin's Lymphoma)
Procedure, shortened: as §1

[7] = tested on: Ca9-22 (Head and Neck Carcinoma)
Procedure, shortened: as §1

[8] = tested on: Hs-766T (Pancreatic Carcinoma)
Procedure, shortened: as §1

NB69 (Neuroblastoma) = tested on: NB69 (Neuroblastoma)
Procedure, shortened: as §1

[9] = tested on: OSC-20 (Oral Cavity Carcinoma)
Procedure, shortened: as §1

[10] = tested on: NUGC-3 (Gastric Carcinoma)
Procedure, shortened: as §1

[11] = tested on: Caov-4 (Ovarian Carcinoma)
Procedure, shortened: as §1

[12] = tested on: HOP-62 (Lung Adenocarcinoma)
Procedure, shortened: as §1

[13] = tested on: AMO-1 (Plasma Cell Myeloma)
Procedure, shortened: as §1

[14] = tested on: EFM-19 (Breast Carcinoma)
Procedure, shortened: as §1

[15] = tested on: NEC8 (Other Solid Carcinomas)
Procedure, shortened: as §1

YH-13 (Glioblastoma) = tested on: YH-13 (Glioblastoma)
Procedure, shortened: as §1

[16] = tested on: NCI-H358 (Lung Adenocarcinoma)
Procedure, shortened: as §1

| Structure (SMILES) | Bliss excess [1] | Bliss excess [2] | Bliss excess [3] | Bliss excess (D-263MG (Glioblastoma)) | Bliss excess [4] | Bliss excess [5] | Bliss excess (TGW (Neuroblastoma)) | Bliss excess [6] | Bliss excess [7] | Bliss excess [8] | Bliss excess (NB69 (Neuroblastoma)) | Bliss excess [9] | Bliss excess [10] | Bliss excess [11] | Bliss excess [12] | Bliss excess [13] | Bliss excess [14] | Bliss excess [15] | Bliss excess (YH-13 (Glioblastoma)) | Bliss excess [16] |
| --- | --- | --- | --- | --- | --- | --- | --- | --- | --- | --- | --- | --- | --- | --- | --- | --- | --- | --- | --- | --- |
| CC1(C)CCC(CN2CCN(c3ccc(C(=O)NS(=O)(=O)c4ccc(NCC5CCOCC5)c([N+](=O)[O-])c4)c(Oc4cnc5[nH]ccc5c4)c3)CC2)=C(c2ccc(Cl)cc2)C1 [Venetoclax] + Cc1cc2ncnn2cc1Nc1ncc2c(n1)n(C1CCOCC1)c(=O)n2C [AZD7648] (first compound max 1 µM, 7x7, partner max 10 µM) | -0.0195 | 0.0127 | -0.0261 | -0.0572 | -0.0634 | 0.0029 | 0.0025 | -0.0106 | -0.0241 | -0.0756 | 0.0069 | -0.0062 | 0.0247 | -0.0492 | -0.0711 | -0.0116 | -0.0469 | 0.0282 | -0.0484 | -0.0207 |
| CC1(C)CCC(CN2CCN(c3ccc(C(=O)NS(=O)(=O)c4ccc(NCC5CCOCC5)c([N+](=O)[O-])c4)c(Oc4cnc5[nH]ccc5c4)c3)CC2)=C(c2ccc(Cl)cc2)C1 [Venetoclax] + CN(C)CCCOc1ccc(-c2ccc3ncc4c(c3c2)n(C2CCOCC2)c(=O)n4C)cn1 [AZD0156] (first compound max 1 µM, 7x7, partner max 1 µM) | -0.0036 | 0.027 | 0.0396 | 0.0045 | -0.0499 | -0.018 | -0.0245 | -0.0109 | 0.0234 | -0.0841 | -0.0548 | -0.0304 | -0.0035 | -0.0256 | -0.0677 | -0.0122 | -0.0184 | 0.0105 | -0.0972 | -0.0146 |
| NC1(C(=O)N[C@@H](CCO)c2ccc(Cl)cc2)CCN(c2ncnc3[nH]ccc23)CC1 [Capivasertib] + CC(=O)c1c(C)c2cnc(Nc3ccc(N4CCNCC4)cn3)nc2n(C2CCCC2)c1=O [Palbociclib] (first compound max 10 µM, 7x7, partner max 10 µM) | -0.0465 | -0.0236 | -0.0085 | 0.0117 | -0.0139 | -0.0247 | -0.0744 | -0.0186 | 0.0171 | 0.0056 | -0.009 | -0.0005 | 0.0372 | 0.0152 | -0.04 | 0.0364 | -0.0107 | -0.0104 | 0.0004 | -0.0373 |
| CC(=O)c1c(C)c2cnc(Nc3ccc(N4CCNCC4)cn3)nc2n(C2CCCC2)c1=O [Palbociclib] + Cc1c2c(nn1C)CSCc1cc(n(C)n1)CSc1cc(c3ccccc3c1)OCCCc1c(C(=O)O)n(C)c3c-2c(Cl)ccc13 [AZD5991] (first compound max 10 µM, 7x7, partner max 1 µM) | -0.0405 | 0.0252 | -0.0219 | -0.0135 | 0.0353 | -0.0526 | -0.079 | -0.0722 | -0.0032 | -0.067 | 0.0058 | -0.0337 | -0.134 | -0.0133 | -0.0573 | -0.0375 | -0.0005 | 0.0111 | -0.003 | -0.0249 |
| COc1nnc2ccc(N3CCC(c4ccc(OCCN5CCN(C)C(=O)[C@H]5C)cc4)CC3)nn12 [AZD5153] + Cc1c2c(nn1C)CSCc1cc(n(C)n1)CSc1cc(c3ccccc3c1)OCCCc1c(C(=O)O)n(C)c3c-2c(Cl)ccc13 [AZD5991] (first compound max 1 µM, 7x7, partner max 1 µM) | -0.0221 | 0.0258 | -0.0471 | 0.105 | -0.0398 | -0.0343 | -0.0523 | -0.0863 | 0.0049 | -0.0369 | -0.0334 | -0.0091 | -0.0233 | 0.0265 | -0.0482 | -0.0514 | 0.059 | 0.0672 | -0.0069 | -0.059 |
| Cc1c2c(nn1C)CSCc1cc(n(C)n1)CSc1cc(c3ccccc3c1)OCCCc1c(C(=O)O)n(C)c3c-2c(Cl)ccc13 [AZD5991] + Cn1cnc2c(F)c(Nc3ccc(Br)cc3Cl)c(C(=O)NOCCO)cc21 [Selumetinib] (first compound max 1 µM, 7x7, partner max 3 µM) | 0.0084 | -0.0006 | 0.033 | -0.0318 | 0.0213 | 0.0375 | 0.0029 | -0.0095 | 0.0185 | -0.0859 | 0.0377 | 0.0146 | 0.0106 | 0.0604 | -0.0626 | 0.0129 | – | 0.0374 | -0.0347 | 0.0531 |
| CCc1c2c(nc3ccc(O)cc13)-c1cc3c(c(=O)n1C2)COC(=O)[C@]3(O)CC [SN-38] + O=C(c1cc(Cc2n[nH]c(=O)c3ccccc23)ccc1F)N1CCN(C(=O)C2CC2)CC1 [Olaparib] (first compound max 0.3 µM, 7x7, partner max 10 µM) | – | 0.0364 | -0.0468 | 0.0617 | -0.0075 | – | 0.06 | 0.0259 | 0.0176 | 0 | 0.0236 | -0.0034 | – | 0.0748 | 0.0562 | 0.0023 | 0.0496 | 0.0473 | 0.0927 | 0.0029 |
| Cc1c2c(nn1C)CSCc1cc(n(C)n1)CSc1cc(c3ccccc3c1)OCCCc1c(C(=O)O)n(C)c3c-2c(Cl)ccc13 [AZD5991] + CCN(CCO)CCCOc1ccc2c(Nc3cc(CC(=O)Nc4cccc(F)c4)[nH]n3)ncnc2c1 [AZD2811] (first compound max 1 µM, 7x7, partner max 1 µM) | -0.0135 | 0.0895 | 0.0635 | 0.122 | 0.0473 | 0.0197 | 0.0418 | 0.0211 | 0.0626 | -0.0019 | 0.0311 | 0.0042 | 0.0454 | 0.0337 | – | 0.0145 | 0.122 | 0.0348 | 0.0141 | -0.0392 |
| C[C@@H]1COCCN1c1cc(C2([S@](C)(=N)=O)CC2)nc(-c2ccnc3[nH]ccc23)n1 [AZD6738] + C1CC(C1)(C(=O)[O-])C(=O)[O-].N.N.[Pt+2] [Carboplatin] (first compound max 10 µM, 7x7, partner max 10 µM) | – | -0.0051 | – | -0.0417 | -0.0445 | – | -0.0765 | -0.0788 | -0.0479 | -0.0536 | -0.0502 | – | – | -0.0209 | – | 0.0025 | -0.0328 | – | -0.0453 | -0.091 |
| C[C@@H](Oc1cc(-c2cnn(C3CCNCC3)c2)cnc1N)c1c(Cl)ccc(F)c1Cl [Crizotinib] + CC1=C(C(=CC=C1)Cl)NC(=O)C2=CN=C(S2)NC3=CC(=NC(=N3)C)N4CCN(CC4)CCO [Dasatinib] (first compound max 10 µM, 7x7, partner max 2 µM) | – | -0.0173 | – | 0.0932 | -0.0009 | – | -0.0593 | -0.119 | 0.0635 | -0.074 | 0.0051 | – | – | -0.0441 | – | -0.0368 | 0.0874 | – | 0.107 | -0.0813 |
| CS(=O)(=O)CCNCc1ccc(-c2ccc3ncnc(Nc4ccc(OCc5cccc(F)c5)c(Cl)c4)c3c2)o1 [Lapatinib] + NC1(c2ccc(-c3nc4ccn5c(=O)[nH]nc5c4cc3-c3ccccc3)cc2)CCC1 [MK-2206] (first compound max 10 µM, 7x7, partner max 10 µM) | – | -0.0229 | -0.0156 | -0.0222 | 0.0172 | – | -0.0033 | 0.0003 | 0.005 | -0.0629 | 0.0688 | – | 0.0527 | -0.05 | – | -0.048 | 0.0455 | – | -0.0154 | -0.0733 |
| Cc1c2c(nn1C)CSCc1cc(n(C)n1)CSc1cc(c3ccccc3c1)OCCCc1c(C(=O)O)n(C)c3c-2c(Cl)ccc13 [AZD5991] + CC(=O)O[C@H]1C(=O)[C@@]2(C)[C@H]([C@H](OC(=O)c3ccccc3)[C@]3(O)C[C@H](OC(=O)[C@H](O)[C@@H](NC(=O)c4ccccc4)c4ccccc4)C(C)=C1C3(C)C)[C@]1(OC(C)=O)CO[C@@H]1C[C@@H]2O [Paclitaxel] (first compound max 1 µM, 7x7, partner max 3 µM) | – | 0.0376 | – | 0.206 | -0.025 | – | -0.0235 | -0.0407 | 0.0065 | -0.0539 | 0.027 | – | – | 0.0995 | – | 0.0096 | 0.0948 | – | 0.0246 | -0.0405 |
| C=CCn1c(=O)c2cnc(Nc3ccc(N4CCN(C)CC4)cc3)nc2n1-c1cccc(C(C)(C)O)n1 [AZD1775] + CCc1c2c(nc3ccc(O)cc13)-c1cc3c(c(=O)n1C2)COC(=O)[C@]3(O)CC [SN-38] (first compound max 1 µM, partner max 0.3 µM) | – | 0.0119 | – | 0.0132 | -0.0018 | – | -0.0592 | -0.0404 | 0.0045 | 0.0017 | 0.0239 | – | – | -0.0557 | – | -0.052 | -0.0175 | – | -0.0262 | -0.0162 |
| C[C@@H](Oc1cc(-c2cnn(C3CCNCC3)c2)cnc1N)c1c(Cl)ccc(F)c1Cl [Crizotinib] + Cn1cnc2c(F)c(Nc3ccc(Br)cc3Cl)c(C(=O)NOCCO)cc21 [Selumetinib] (first compound max 10 µM, 7x7, partner max 10 µM) | – | -0.0324 | – | -0.0866 | -0.0226 | – | -0.0252 | -0.0548 | -0.0286 | -0.0074 | -0.0283 | – | – | -0.025 | – | 0.0122 | -0.0327 | – | -0.0111 | -0.106 |
| Cc1c2c(nn1C)CSCc1cc(n(C)n1)CSc1cc(c3ccccc3c1)OCCCc1c(C(=O)O)n(C)c3c-2c(Cl)ccc13 [AZD5991] + CN(C)CCCOc1ccc(-c2ccc3ncc4c(c3c2)n(C2CCOCC2)c(=O)n4C)cn1 [AZD0156] (first compound max 1 µM, 7x7, partner max 1 µM) | -0.0413 | -0.0092 | 0.0458 | 0.0047 | 0.043 | -0.0186 | -0.0079 | -0.0117 | -0.0131 | -0.0006 | -0.136 | 0.0236 | 0.0167 | -0.0035 | – | 0.0058 | -0.03 | 0.0201 | -0.0465 | 0.0096 |
